These results are taken from patent publication US20250213452A1, “BIFUNCTIONAL PEPTIDES FOR BIOMIMETIC RECONSTRUCTION OF SILVER DIAMINE FLUORIDE TREATED DENTAL TISSUES” (University of Kansas, priority 2022, published 2025).

Where two headings read alike, the source gives them in different places.

Experiment [1] in a line: Enzyme-mediated mineralization on SDF-treated dental tissue slabs, SEM/EDS Ca/P ratio of mineral layer. The settings on record: for Averaged calculated Ca/P ratio: Mineralized sample. More on the design: species or system human. As to the method:
(§1) Lyophilized peptide stocks were selected and reconstituted in Milli-Q (resistance, >18 MQ) water immediately prior to experiments with both silver-coated silica substrates and slabs of dental tissue. Stock solutions were prepared to a final concentration of 100 μM peptide. Silica substrates or slabs of dental tissue were submerged into a solution containing 50 μM peptide and allowed 2-4 hours gentle shaking at room temperature to ensure the binding of AgBP. This excess concentration and incubation time was used to ensure ample peptide binding.
NaCl containing 0.002% sodium azide.
To investigate calcium phosphate nucleation facilitated by the MP, an alkaline phosphatase (AP) based mineralization model was followed.^44 This model mimics the biological process wherein inorganic phosphate is cleaved from organic phosphate by naturally occurring AP and subsequently reacts with free calcium. Briefly, control samples without peptide and test samples functionalized with MP were submerged in a remineralization buffer containing 14.4 mM β-glycerophosphate (β-GP) and 24 mM Ca^2+ in 25 mM Tris-HCl at pH 7.4. Mineralization reactions were initiated by adding alkaline phosphatase (fastAP; ThermoFisher, USA) to the solutions to achieve a final concentration of 1.4×10^−6 g/mL and allowed to react at 37° C. for 2 hours to form a calcium phosphate mineral layer on the sample surface. Samples were removed from the solution and allowed to air dry prior to microscopic and spectroscopic analyses.
For the bifunctional peptide treated group, SDF-treated dental tissues were functionalized with either 0 μM or 50 μM bifunctional peptide prior to the mineralization protocol. […] On average, the Ca/P ratios from the mineralized layer observed in both the peptide-treated and SDF-treated tissue as well as the SDF-only treated tissues, were about 0.1-0.15 less than what was obtained for the untreated and peptide-functionalized Ag-coated silica samples. The presence of calcium phosphate rich minerals in the slabs of dental tissue may alter the availability of free calcium and phosphate in the enzyme-mediated mineralization reaction. […] Differences in the mineralization may also be attributed to the anchoring effect of the AgBP peptide being bound to the SDF-treated regions of the dental tissue.

For experiment [2] the following is noted: SDF-treated Control.
Procedure: Specimens of dental tissues were prepared using a protocol modified slightly from previous publications.^45 The specimens consisted of extracted human molars. […] The extracted teeth were stored at 4° C. in 0.9% wt./vol. NaCl containing 0.002% sodium azide. […] The tooth was sectioned parallel to the long axis to provide 1.4 mm thick slabs. The prepared sections were stored in a modified phosphate buffered saline (PBS) buffer (20 mM Na2HPO4, 137 mM NaCl, 2.7 mM KCl, and 1.8 mM KH2PO4, pH 7.4) at 4° C. until experimental use.
SDF was applied to dental tissue following the detailed guidelines published by the UCSF Caries Arrest Committee.^25,34 Briefly, the prepared slabs of dental tissue were removed from the modified PBS buffer, rinsed with Milli-Q purified water, and gently dried with compressed air to reveal suitable carious regions of the dental tissues. A single drop of commercially available 38% SDF solution (Dengen Caries Arrest; Dengen Dental, Bahadurgarh, Haryana, India) was placed into a fresh plastic dish. A microbrush applicator head was dipped into the solution and touched to the side of the dish to remove excess fluid by surface tension. The SDF was applied to the dental tissue, allowed to absorb for 1 minute and the treated sample was gently rinsed with Milli-Q purified water. The tissue was placed back into modified PBS buffer and incubated at 37° C. for 6 hours to mimic the oral environment and to allow for SDF activity.
To image the mineral morphology, surface coverage, and to determine the Ca/P ratios of the precipitated material, a Hitachi SU8230 Field Emission Scanning Electron Microscope (Hitachi High-Tech America, IL, USA) equipped with a silicon drift EDS detector (X-Max, Oxford Instruments, MA, USA) was used. SEM imaging was completed at 5 kV and EDS measurements made with an acceleration voltage of 10 kV to improve signal. Prior to SEM/EDS analysis, samples were sputter-coated with 5 nm iridium using a Quorum sputter coating system (Q150, Quorum, UK). EDS analysis was performed using AZtec software (Oxford Instruments, MA, USA) and values were averaged across a minimum of three regions for each sample.
Treated dental tissues were analyzed using SEM for imaging and EDS for compositional analysis. Average Ca/P molar ratios were calculated for each slab of dental tissue from both SDF-treated and untreated regions of enamel and dentin, corresponding to SDF treatment of carious dental tissues, to assess mineral formation and compositional changes on the tooth samples in the presence and absence of the bifunctional peptide.
Experiment [3] in a line: Enzyme-mediated (alkaline phosphatase) mineralization on Ag-coated silica substrates, SEM/EDS. The settings on record: 50 μM bifunctional peptide. As to the method: as §1
To confirm the selectivity and specificity for silver-binding of bifunctional peptides, preliminary studies were conducted on silver-coated silica substrates. Silica wafers were cut into 1 cm square pieces using a diamond scribe and a published protocol for […] deposition of silver onto silica was followed.^66,67 Briefly, the Si(111) wafers were cleansed in hydrogen peroxide and sulfuric acid solution (3:7) for 20 minutes, rinsed thoroughly with Milli-Q water, and dried with N2 gas prior to use. An etching step was employed prior to Ag-deposition, where a drop of 5% NH4F solution was placed on the surface of the cleaned silica substrate for 30 s and removed carefully with N2 gas. […]

The conditions of experiment [4]: cell-free assay, demineralized human dentin root surfaces; cited from earlier work.

As for silver diamine fluoride [SDF], the “Averaged calculated Ca/P ratio” value in experiment [1] (SDF-treated, 0 μM peptide, Dentin) is given as 1.066; in experiment [1] (SDF-treated, 0 μM peptide, Enamel), 1.092; in experiment [1] (SDF-treated, 0 μM peptide, SDF-stained dentin) it was 1.137; in experiment [1] (SDF-treated, 0 μM peptide, SDF-stained enamel), 1.100; in experiment [2] (Dentin (untreated region)), 1.419; in experiment [2] (Enamel (untreated region)), 1.447. In addition, the “Averaged calculated Ca/P ratio” value in experiment [2] (SDF-stained dentin) is 1.546; in experiment [2] (SDF-stained enamel), 1.540.
“SYEKSHSQAINTDRTAPAEQLGVRKELRGV [MP_APA_AgBP, bifunctional peptide, MP and AgBP domains joined by APA spacer]”: in experiment [3] (EDS), the “average Ca/P ratio of mineral layer” value is listed as “about 1.40”. Moreover, the “mineral coverage compared to control samples” value in experiment [3] (alkaline phosphatase-based mineralization, SEM) is “significantly higher mineral coverage”. The “Averaged calculated Ca/P ratio” value in experiment [1] (SDF-treated Peptide-functionalized (50 μM), Dentin) is given as 1.291; in experiment [1] (SDF-treated Peptide-functionalized (50 μM), Enamel) it was 1.338; in experiment [1] (SDF-treated Peptide-functionalized (50 μM), SDF-stained dentin), 1.238; in experiment [1] (SDF-treated Peptide-functionalized (50 μM), SDF-stained enamel), 1.257. In addition, in experiment [1] (four SDF treated slabs of carious dental tissue, bright field optical microscopy, FIG. 7), the “mineralization onto SDF treated dental tissues” value is recorded as “demonstrated the capacity to direct mineralization”.
Regarding “SYEKSHSQAINTDRT [MP, mineralizing peptide domain, 15 amino acids, derived from amelogenin]”, in experiment [4], the “hydroxyapatite mineral layer formation” value is listed as “regulated formation of a robust hydroxyapatite mineral layer”.
